Experiments:
Type in all cases: cell-based
[1] = system: Ax 12 Corynebacterium jeikeium; experiment: MIC microtiter plate test, axilla strain Ax 12; settings: Table 1; growth inhibited by at least 80%, 24 h at 36° C.
Source text: (§1) The different bacterial strains had been isolated from the human axilla by current microbiological practice. They were taxonomically identified by cell morphology, gram-reaction, and biochemical tests included in the Api coryne test kit (BioMerieux, France). Strain Staphylococcus epidermidis Ax25 was identified by fatty acid methyl ester analysis (FAME; German type strain collection DSMZ, Germany). The strains were maintained on Tryptic soy […] plates, this standard medium being amended with 5 g per Liter of Tween 80 and 1 g of Soybean lecithin. Plates were incubated at 36° C. for a period 48 hours. The bacteria were then swabbed from the plates and suspended in 4 ml of Müller-Hinton broth amended with 100 mg of Tween 80 per Liter (MH-Tween) and incubated again at 36° C. for 16 hours. Following incubation the bacterial suspensions were diluted in MH-Tween to obtain a final cell density of 10^6 colony forming units per ml. For each fragrance material four microtiter plates were used in the example, each microtiter plate having 8 rows, A-H, and 12 columns, 1-12.
(§2) To each column a diluted suspension of a different test organism was distributed, 100 μl per well. 1% stock solutions of the fragrance materials were then prepared in MH-Tween broth. The fragrance material was dispersed by ultrasonication into the aqueous medium to obtain a homogenous emulsion. 100 μl per well of this emulsion was then added to the first row of the microtiter plates already containing the target organisms. Serial dilution series were then prepared starting at row A and continuing until row G, each time removing 100 μl from a well and transferring it to the next well. In this way fragrance concentrations of 0.5%, 0.25%, 0.125%, 0.0625%, 0.03125%, 0.0156%, and 0.0078% were tested for their antibacterial efficacy. The reference compound Triclosan was tested at 16-fold lower concentrations. The plates were covered with plastic films and incubated for 24 h at 36° C. with shaking at 250 rpm. The turbidity developing in the microtiter plates was then examined after 24 h to determine microbial growth. […]

[2] = system: Ax 7 Corynebacterium group G; experiment: MIC microtiter plate test, axilla strain Ax 7; settings: for Minimal inhibitory concentration (MIC) Ax 7: Table 1, growth inhibited by at least 80%, 24 h at 36° C.
Source text: as §1
(§3) To each column a diluted suspension of a different test organism was distributed, 100 μl per well. 1% stock solutions of the fragrance materials were then prepared in MH-Tween broth. The fragrance material was dispersed by ultrasonication into the aqueous medium to obtain a homogenous emulsion. 100 μl per well of this emulsion was then added to the first row of the microtiter plates already containing the target organisms. Serial dilution series were then prepared starting at row A and continuing until row G, each time removing 100 μl from a well and transferring it to the next well. In this way fragrance concentrations of 0.5%, 0.25%, 0.125%, 0.0625%, 0.03125%, 0.0156%, and 0.0078% were tested for their antibacterial efficacy. The reference compound Triclosan was tested at 16-fold lower concentrations. The plates were covered with plastic films and incubated for 24 h at 36° C. with shaking at 250 rpm. The turbidity developing in the microtiter plates was then examined after 24 h to determine microbial growth. The minimal concentration of fragrance inhibiting the growth of an organism by at least 80% was determined as the minimal inhibitory concentration (MIC).
(§4) Ax 25 was identified as Staphylococcus. epidermidis by FAME analysis. Identification with the Api Coryne test kit yielded the following species assignments for the remainder of the strains: Ax 26 Corynebacterium sp.; Ax 3 Corynebacterium bovis; Ax 7 Corynebacterium group G; Ax 10 Corynebacterium jeikeium; Ax 11 Corynebacterium jeikeium; Ax 12 Corynebacterium jeikeium; Ax 15 Corynebacterium jeikeium; Ax 20 Corynebacterium striatum/amycolatum; and Ax 19 Corynebacterium jeikeium. The strains were isolated from the axilla of 8 human volunteers. Based on biochemical tests and colony morphology all strains were distinct from each other, even the several strains all belonging to Corynebacterium jeikeium.

[3] = system: Ax 26 Corynebacterium sp.; experiment: MIC microtiter plate test, axilla strain Ax 26; settings: for Minimal inhibitory concentration (MIC) Ax 26: Table 1, growth inhibited by at least 80%, 24 h at 36° C.; for Bacteriostatic activity Corynebact. Ax 26: Table 7, concentration for at least 80% reduction in growth during 24 hours
Source text: as §1, §3, §4

[4] = system: Staphylococcus epidermidis Ax25; experiment: MIC microtiter plate test, axilla strain Ax 25; settings: for Minimal inhibitory concentration (MIC) Ax 25: Table 1, growth inhibited by at least 80%, 24 h at 36° C.
Source text: as §1, §3, §4

[5] = system: Ax 20 Corynebacterium striatum/amycolatum; experiment: MIC microtiter plate test, axilla strain Ax 20; settings: Table 1; growth inhibited by at least 80%, 24 h at 36° C.
Source text: as §1, §2

[6] = system: Ax 3 Corynebacterium bovis; experiment: MIC microtiter plate test, axilla strain Ax 3; settings: Table 1; growth inhibited by at least 80%, 24 h at 36° C.
Source text: as §1, §2

[7] = system: Ax 10 Corynebacterium jeikeium; experiment: MIC microtiter plate test, axilla strain Ax 10; settings: Table 1; growth inhibited by at least 80%, 24 h at 36° C.
Source text: as §1, §2

[8] = system: Ax 11 Corynebacterium jeikeium; experiment: MIC microtiter plate test, axilla strain Ax 11; settings: Table 1; growth inhibited by at least 80%, 24 h at 36° C.
Source text: as §1, §2

[9] = system: Ax 15 Corynebacterium jeikeium; experiment: MIC microtiter plate test, axilla strain Ax 15; settings: for Minimal inhibitory concentration (MIC) Ax 15: Table 1, growth inhibited by at least 80%, 24 h at 36° C.
Source text: as §1, §3, §4

[10] = system: Corynebacteria; experiment: Activity against Corynebacteria; settings: statement in words
Source text: With 2-methoxy-4-(5,5,6-trimethylbicyclo[2.2.1]hept-2-yl)cyclohexan-1-ol an outstanding activity is achieved.
as §1
To each column a diluted suspension of a different test organism was distributed, 100 μl per well. 1% stock solutions of the fragrance materials were then prepared in MH-Tween broth. […]

[11] = system: Ax 19 Corynebacterium jeikeium; experiment: MIC microtiter plate test, axilla strain Ax 19; settings: Table 1; growth inhibited by at least 80%, 24 h at 36° C.
Source text: as §1
To each column a diluted suspension of a different test organism was distributed, 100 μl per well. 1% stock solutions of the fragrance materials were then prepared in MH-Tween broth. The fragrance material was dispersed by ultrasonication into the aqueous medium to obtain a homogenous emulsion. […]

[12] = Table 7, concentration for at least 80% reduction in growth during 24 hours

SMILES: CC1=CCC(CCC(C)C(C)O)C1(C)C (centres unmarked) [Sandalore]
- Minimal inhibitory concentration (MIC) Ax 12 [1]: 0.1250 % weight/volume
- Minimal inhibitory concentration (MIC) Ax 7 [2]: 0.1250 % weight/volume
- Minimal inhibitory concentration (MIC) Ax 26 [3]: 0.1250 % weight/volume
- Minimal inhibitory concentration (MIC) Ax 25 [4]: 0.1250 % weight/volume
- Minimal inhibitory concentration (MIC) Ax 20 [5]: 0.1250 % weight/volume
- Minimal inhibitory concentration (MIC) Ax 3 [6]: 0.1250 % weight/volume
- Minimal inhibitory concentration (MIC) Ax 10 [7]: 0.1250 % weight/volume
- Minimal inhibitory concentration (MIC) Ax 11 [8]: 0.1250 % weight/volume
- Minimal inhibitory concentration (MIC) Ax 15 [9]: 0.2500 % weight/volume

SMILES: COC1CC(C2CC3CC2C(C)C3(C)C)CCC1O (centres unmarked) [2-methoxy-4-(5,5,6-trimethylbicyclo[2.2.1]hept-2-yl)cyclohexan-1-ol]
- activity against Corynebacteria [10]: highest activity

SMILES: CCC(=CCC1CC=C(C)C1(C)C)CO (centres unmarked) [Radjanol]
- Minimal inhibitory concentration (MIC) Ax 7 [2]: 0.0625 % weight/volume
- Minimal inhibitory concentration (MIC) Ax 26 [3]: 0.0625 % weight/volume
- Minimal inhibitory concentration (MIC) Ax 25 [4]: 0.1250 % weight/volume
- Minimal inhibitory concentration (MIC) Ax 15 [9]: 0.125. % weight/volume

SMILES: COC1CCC(C2CC3CC2C(C)C3(C)C)CC1O (centres unmarked) [2-methoxy-5-(5,5,6-trimethyl-bicyclo[2.2.1]hept-2-yl)cyclohexan-1-ol]
- activity against Corynebacteria [10]: highest activity

SMILES: CC(C)=CCCC(C)=CCCC(C)=CCO [Farnesol, 3,7,11-trimethyl-2,6,10-dodecatrien-1-ol]
- Minimal inhibitory concentration (MIC) Ax 26 [3]: 0.0078 % weight/volume
- Bacteriostatic activity Corynebact. Ax 26 [3]: 0.0078 percent (w/v)

SMILES: CC1=CCC(/C=C\C(C)C(C)O)C1(C)C (centres unmarked) [Ebanol]
- Minimal inhibitory concentration (MIC) Ax 12 [1]: 0.2500 % weight/volume
- Minimal inhibitory concentration (MIC) Ax 7 [2]: 0.1250 % weight/volume
- Minimal inhibitory concentration (MIC) Ax 26 [3]: 0.1250 % weight/volume
- Minimal inhibitory concentration (MIC) Ax 25 [4]: 0.1250 % weight/volume
- Minimal inhibitory concentration (MIC) Ax 20 [5]: 0.1250 % weight/volume
- Minimal inhibitory concentration (MIC) Ax 3 [6]: 0.1250 % weight/volume
- Minimal inhibitory concentration (MIC) Ax 10 [7]: 0.2500 % weight/volume
- Minimal inhibitory concentration (MIC) Ax 11 [8]: 0.2500 % weight/volume
- Minimal inhibitory concentration (MIC) Ax 15 [9]: 0.2500 % weight/volume

SMILES: COC1CC(C2CC3CC2C(C)C3(C)C)CCC1O (single isomer, unassigned) [Peak B]
- Bacteriostatic activity Corynebact. Ax 26 [3]: 0.0016 percent (w/v)

SMILES: Oc1cc(Cl)ccc1Oc1ccc(Cl)cc1Cl [Triclosan, 2,4,4′-trichloro-2′-hydroxy-diphenyl-ether]
- Minimal inhibitory concentration (MIC) Ax 12 [1]: 0.0017 % weight/volume
- Minimal inhibitory concentration (MIC) Ax 7 [2]: 0.0029 % weight/volume
- Bacteriostatic activity Corynebact. Ax 7 [2, 12]: 0.0025 percent (w/v)
- Minimal inhibitory concentration (MIC) Ax 26 [3]: 0.0015 % weight/volume
- Bacteriostatic activity Corynebact. Ax 26 [3]: 0.0025 percent (w/v)
- Minimal inhibitory concentration (MIC) Ax 25 [4]: 0.000015 % weight/volume
- Bacteriostatic activity S. epidermidis [4, 12]: 0.000015 percent (w/v)
- Minimal inhibitory concentration (MIC) Ax 20 [5]: 0.0107 % weight/volume
- Minimal inhibitory concentration (MIC) Ax 3 [6]: 0.0029 % weight/volume
- Minimal inhibitory concentration (MIC) Ax 10 [7]: 0.0020 % weight/volume
- Minimal inhibitory concentration (MIC) Ax 19 [11]: 0.0039 % weight/volume
- Minimal inhibitory concentration (MIC) Ax 11 [8]: 0.0029 % weight/volume
- Minimal inhibitory concentration (MIC) Ax 15 [9]: 0.0029 % weight/volume
- Bacteriostatic activity Corynebact. Ax 15 [9, 12]: 0.0030 percent (w/v)

Source: US20050101678A1, “Antibacterial composition” (priority 2000, published 2005)
